The record followed here is patent publication US20040096356A1, “Assay device for determining analytes in a liquid dairy product” (priority 1997, published 2004).

The target in this assay is T1, enzyme R39 (soluble exocellular D-alanyl-D-alanine carboxypeptidase produced by Actinomadura R39) (Actinomadura sp., UniProt P39045).
T1 construct: soluble exocellular D-alanyl-D-alanine carboxypeptidase produced by Actinomadura R39, obtained by the procedure described in J.-M. Frere et al; made in house; host or cells: Actinomadura R39 (natural producer, secreted enzyme)
T1 sequence (P39045 50-515): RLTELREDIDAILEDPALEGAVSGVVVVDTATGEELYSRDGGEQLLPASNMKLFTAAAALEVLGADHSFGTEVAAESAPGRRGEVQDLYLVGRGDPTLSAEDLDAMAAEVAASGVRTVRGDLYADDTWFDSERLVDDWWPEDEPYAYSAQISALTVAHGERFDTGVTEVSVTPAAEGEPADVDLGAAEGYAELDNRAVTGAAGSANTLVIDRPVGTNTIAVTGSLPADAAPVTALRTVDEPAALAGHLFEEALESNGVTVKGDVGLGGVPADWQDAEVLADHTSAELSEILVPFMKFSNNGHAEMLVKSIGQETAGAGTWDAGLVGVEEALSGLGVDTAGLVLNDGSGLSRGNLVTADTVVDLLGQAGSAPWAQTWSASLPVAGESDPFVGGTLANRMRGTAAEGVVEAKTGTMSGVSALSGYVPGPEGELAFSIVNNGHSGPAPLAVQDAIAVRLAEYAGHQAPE
The experiment in a line: Test 1, rapid test (5 minutes): strip test for β-lactam antibiotics in milk using enzyme R39. The format is binding. The following applies: for Intensity 1st band: scale 0 to 10, reference band 6, 47° C., 3 min incubation + 2 min migration. How it is done:
The identifier used in this example is soluble exocellular D-alanyl-D-alanine carboxypeptidase produced by Actinomadura R39, obtained by the procedure described in J.-M. Frere et al., Antimicrobial Agents and Chemotherapy, 18(4), 506-510 (1980).
250 μl of an aqueous solution of enzyme R39 having a concentration of 1 mg/ml are dialysed for 24 hours against 500 ml of HNM buffer (Hepes 10 mM, pH 8, NaCl 10 mM, MgCl2 5 mM). To this dialysed solution of enzyme R39 are then added 2 ml of bicarbonate buffer (0.1 M sodium bicarbonate, pH 9) and 250 μl of a solution of N-hydroxysuccinimide 6-(biotinamido)caproic ester having a concentration of 5 mg/ml in anhydrous DMF. This solution is stirred gently in the LABINCO stirrer for tubes on a rotary axis (available from VEL, Belgium) at a rate of 2 revolutions/minute for 3 hours at room temperature and away from light. The solution thus obtained is dialysed against the HNM buffer ([…]) for 24 hours. In this way a solution of biotinylated enzyme R39 is obtained which is diluted in HNM-BSA buffer (Hepes 500 mM; pH 8, NaCl 500 mM, MgCl2 250 mM, BSA 10 mg/ml) to a concentration of 100 μg of enzyme R39 per ml of buffer. This solution is stored at −20° C.
As the marker use is made of particles of gold having a diameter of 40 nm on which a goat anti-biotin antibody has been deposited in the form of suspensions in a 2 mM aqueous sodium tetraborate solution, with a pH of 7.2, stabilized by 0.1% of sodium azide (available from British Biocell (Ref. GAB40)). The optical density of these suspensions at 520 nm is approximately 10 and the protein concentration is approximately 24 μg/ml.
The biotinylated enzyme R39 solution prepared in Example 2.2.1 is diluted 25 times with the HNM-BSA buffer (Hepes 500 mM, pH 8, NaCl 500 mM, MgCl2 250 mM, BSA 10 mg/ml). At room temperature, 17.5 parts by volume of this dilute biotinylated enzyme R39 solution, 9.27 parts by volume of the gold particle suspension used to label the enzyme R39 and 6 parts by volume of reference gold particle suspension are mixed (see Example 2.3).
The first capture substance makes it possible to fix the identifiers coupled with the free markers present in excess relative to the quantity of antibiotic present in the sample.
Assay devices containing membranes (2), (3) and (4) are used, assembled in accordance with the procedure described in Example 1.1. The membrane (3) of these devices carries on the proximal side the capture substance described in Example 2.4.1. and on the distal side the capture substance described in Example 2.4.2. The capture substances were deposited in accordance with the procedure described in Example 1.2.
Seven samples of milk are prepared, containing 0; 2; 4; 5; 6; 8 and 10 ppb, respectively, of penicillin G. Each of these solutions is then analysed as follows.
An aliquot is taken of 200 μl of milk sample and […] of solution A prepared in Example 2.2.3, and is placed in an Eppendorf tube. This mixture is incubated at 47° C. for 3 minutes. An assay device is then placed vertically in the Eppendorf tube such that the first end of the assay device is in contact with the mixture. The mixture is allowed to migrate over the assay device while the assembly is incubated at 47° C. for 2 minutes.
An intensity value ranging from 0 to 10 is awarded to the bands detected, the value 10 being given to the most intense band and the value 0 being given to the least intense band. On this scale, a value 6 is awarded to the reference band. The intensity of the signal observed in the first detection band is inversely proportional to the quantity of penicillin G present in the sample.
In this example, the test is considered to be positive when the first band has an intensity which is lower than that of the reference band. The results shown in Table 1 indicate that this test makes it possible to detect in 5 minutes down to 4 ppb of penicillin G in a milk sample.

As to `CC1(C)S[C@@H]2[C@H](NC(=O)Cc3ccccc3)C(=O)N2[C@H]1C(=O)O` [Penicillin G, penicillin G], the “Intensity 1st band” value by setting is: (2 ppb penicillin G in milk) 8; (4 ppb penicillin G in milk) 5; (5 ppb penicillin G in milk) 3; (6 ppb penicillin G in milk) 2; (8 ppb penicillin G in milk) 1; (10 ppb penicillin G in milk) 0. Besides, where the note is “in 5 minutes, positive when first band is less intense than reference band”, the “lowest concentration detected in a milk sample” value turned out to be 4 ppb.
